“And” between values parts separate entries of the source, which are not always exact repeats. Equal entries are not always repeated. “Also recorded” adds a separate entry of the source.
Assays:
[1] = system: Trichostrongylus; assay: Example 31 lamb test, Trichostrongylus; type: in vivo; details: for average number of Trichostrongylus remaining: group average; for total number of Trichostrongylus remaining: group total; for mean percentage efficacy against Trichostrongylus: vs unmedicated controls
Experimental: (§1) At both dosages, the compound p-toluoyl chloride phenylhydrazone was efficacious against Haemonchus, Ostertagia, Nematodirus, Trichostrongylus, Strongyloides, Oesophagostomum, and Cooperia.
(§2) In th comprehesive test with 100 mg./kg. and 200 mg./kg. dosages of p-toluoyl chloride phenylhydrazone, five lambs were used for each dosage level, and five lambs were maintained as unmedicated controls. Daily egg counts in the feces were made before and after treatment. The lambs were killed and examined post-mortem for worms present 11 days after treatment. Helminth populations were recovered, enumerated and identified.
(§3) The mean percentage efficacy against specific helminths in the test lambs was calculated by subtracting the average number of the helminths observed in the treated lambs, postmortem, from the average number observed in the unmedicated controls, post-mortem; dividing the remainder by the latter average number; and multiplying by 100. Accordingly, the means percentage efficacies against the various helminths identified in the test lambs were calculated and found to be as follows: […]

[2] = system: helminths; assay: preliminary test with worm infested lambs, helminths overall; type: in vivo; details: one lamb
Experimental: (§4) A preliminary test with lambs was effected by maintaining worm infested lambs under satisfactory environmental conditions with feed and water available ad libitum. Pretreatment fecal examinations were made in order to characterize and evaluate the parasitism of each animal. The presence of helminth ova was recorded in terms of the number of eggs per gram of feces.
(§5) On the day of treatment, each lamb was weighed and a dosage for it was calculated in terms of milligrams of compound per kilogram of body weight. The calculated dosage of compound was pulverized and packed in a gelatin capsule for oral administration.
In this preliminary test one lamb received 200 mg. p-toluoyl chloride phenylhydrazone per kilogram of body weight - a total dosage of 5.0 g.

[3] = system: parasitic worms; assay: anthelmintic activity (general; sheep); details: in vivo
[4] = system: Trichuris ovis; assay: preliminary test with worm infested lambs, Trichuris; type: in vivo; details: one lamb, 400 mg./kg. oral
Experimental: as §4, §5

[5] = system: Oesophagostomum; assay: preliminary test with worm infested lambs, Oesophagostomum; type: in vivo; details: one lamb, 300 mg./kg. oral
Experimental: as §4, §5

[6] = system: Oesophagostomum; assay: Example 31 lamb test, Oesophagostomum; type: in vivo; details: for average number of Oesophagostomum remaining: group average; for total number of Oesophagostomum remaining: group total; for mean percentage efficacy against Oesophagostomum: vs unmedicated controls
Experimental: as §1, §2, §3

[7] = system: Ostertagia; assay: preliminary test with worm infested lambs, Ostertagia; type: in vivo; details: one lamb
Experimental: as §4, §5

[8] = system: Trichuris; assay: Example 31 lamb test, Trichuris; type: in vivo; details: for average number of Trichuris remaining: group average; for total number of Trichuris remaining: group total
Experimental: as §2, §3

[9] = system: helminths; assay: Example 31 lamb test, helminths overall; type: in vivo; details: 100 mg. and 200 mg. per kg
Experimental: as §1, §2, §3

[10] = system: Cooperia; assay: Example 31 lamb test, Cooperia; type: in vivo; details: for average number of Cooperia remaining: group average; for total number of Cooperia remaining: group total; for mean percentage efficacy against Cooperia: vs unmedicated controls
Experimental: as §1, §2, §3

[11] = system: tapeworm Moniezia; assay: Example 31 lamb test, tapeworm; type: in vivo
Experimental: as §1, §2, §3

[12] = system: Bunostomum; assay: Example 31 lamb test, Bunostomum; type: in vivo; details: 200 mg./kg.
Experimental: as §1, §2, §3

[13] = system: Haemonchus; assay: preliminary test with worm infested lambs, Haemonchus; type: in vivo; details: one lamb, 300 mg./kg. oral
Experimental: as §4, §5

[14] = system: Strongyloides; assay: preliminary test with worm infested lambs, Strongyloides; type: in vivo; details: one lamb
Experimental: as §4, §5

[15] = system: Nematodirus; assay: Example 31 lamb test, Nematodirus; type: in vivo; details: for average number of Nematodirus remaining: group average; for total number of Nematodirus remaining: group total; for mean percentage efficacy against Nematodirus: vs unmedicated controls
Experimental: as §1, §2, §3

[16] = system: Ostertagia; assay: Example 31 lamb test, Ostertagia; type: in vivo; details: for average number of Ostertagia remaining: group average; for total number of Ostertagia remaining: group total; for mean percentage efficacy against Ostertagia: vs unmedicated controls
Experimental: as §1, §2, §3

[17] = system: Strongyloides; assay: Example 31 lamb test, Strongyloides; type: in vivo; details: for average number of Strongyloides remaining: group average; for total number of Strongyloides remaining: group total; for mean percentage efficacy against Strongyloides: vs unmedicated controls
Experimental: as §1, §2, §3

[18] = system: Nematodirus; assay: preliminary test with worm infested lambs, Nematodirus; type: in vivo; details: one lamb
Experimental: as §4, §5

[19] = system: Haemonchus; assay: Example 31 lamb test, Haemonchus; type: in vivo; details: for average number of Haemonchus remaining: group average; for total number of Haemonchus remaining: group total; for mean percentage efficacy against Haemonchus: vs unmedicated controls
Experimental: as §1, §2, §3

[20] = system: lambs; details: in vivo
Experimental: as §2, with “At both dosages, the compound p-toluoyl chloride phenylhydrazone was efficacious against Haemonchus, Ostertagia, Nematodirus, Trichostrongylus, Strongyloides, Oesophagostomum, and Cooperia. […] In” for “In”

[21] = system: Trichostrongylus; assay: preliminary test with worm infested lambs, Trichostrongylus; type: in vivo; details: one lamb
Experimental: as §4, §5

[22] = anorexigenic activity; details: in vivo

Cc1ccc(C(Cl)=NNc2ccccc2)cc1 [p-toluoyl chloride phenylhydrazone]
efficacy against Trichostrongylus (in words) ([1]; 100 mg. and 200 mg. per kg): efficacious
number of Trichostrongylus recovered at necropsy, individual lamb ([1]; 100 mg./kg.): 0 and 15
average number of Trichostrongylus remaining ([1]; 100 mg./kg.): 4
total number of Trichostrongylus remaining ([1]; 100 mg./kg.): 15
mean percentage efficacy against Trichostrongylus ([1]; 100 mg./kg.): 98.7%
number of Trichostrongylus recovered at necropsy, individual lamb ([1]; 200 mg./kg.): 0
average number of Trichostrongylus remaining ([1]; 200 mg./kg.): 0
total number of Trichostrongylus remaining ([1]; 200 mg./kg.): 0
mean percentage efficacy against Trichostrongylus ([1]; 200 mg./kg.): 100%
effectiveness of the dosage ([2]; 200 mg./kg. oral): somewhat effective
helminth eggs in the feces ([2]; 200 mg./kg. oral): significantly fewer helminth eggs in the feces
numbers of helminths at necropsy ([2]; 200 mg./kg. oral): reduced numbers of helminths at necropsy
helminth egg counts ([2]; 300 mg./kg. oral): reduced significantly (except Trichuris)
worm infestation on necropsy ([2]; 300 mg./kg. oral): low
egg counts ([2]; 400 mg./kg. oral): significantly lowered egg counts
worms at necropsy ([2]; 400 mg./kg. oral): absence of worms
anthelmintic activity [3]: effective against worms; also recorded: efficacious anthelmintic agents
activity against Trichuris ovis [4]: lack of noticeable activity
activity against Oesophagostomum (egg counts and necropsy) [5]: established activity
efficacy against Oesophagostomum (in words) ([6]; 100 mg. and 200 mg. per kg): efficacious
number of Oesophagostomum recovered at necropsy, individual lamb ([6]; 100 mg./kg.): 0
average number of Oesophagostomum remaining ([6]; 100 mg./kg.): 0
total number of Oesophagostomum remaining ([6]; 100 mg./kg.): 0
mean percentage efficacy against Oesophagostomum ([6]; 100 mg./kg.): 100%
number of Oesophagostomum recovered at necropsy, individual lamb ([6]; 200 mg./kg.): 0 and 3
average number of Oesophagostomum remaining ([6]; 200 mg./kg.): < 1
total number of Oesophagostomum remaining ([6]; 200 mg./kg.): 3
mean percentage efficacy against Oesophagostomum ([6]; 200 mg./kg.): 90.6%
activity against Ostertagia (egg counts and necropsy) ([7]; 300 mg./kg. oral): established activity
activity against Ostertagia ([7]; 400 mg./kg. oral): Activity
number of Trichuris recovered at necropsy, individual lamb ([8]; 100 mg./kg.): 31 and 83 and 3 and 37 and 4
average number of Trichuris remaining ([8]; 100 mg./kg.): 32
total number of Trichuris remaining ([8]; 100 mg./kg.): 158
mean percentage efficacy against Trichuris ([8]; 100 mg./kg., vs unmedicated controls): 0%
number of Trichuris recovered at necropsy, individual lamb ([8]; 200 mg./kg.): 6 and 64 and 28 and 56
average number of Trichuris remaining ([8]; 200 mg./kg.): 39
total number of Trichuris remaining ([8]; 200 mg./kg.): 154
overall anthelmintic activity in lambs [9]: excellent activity
efficacy against Cooperia (in words) ([10]; 100 mg. and 200 mg. per kg): efficacious
number of Cooperia recovered at necropsy, individual lamb ([10]; 100 mg./kg.): 0
average number of Cooperia remaining ([10]; 100 mg./kg.): 0
total number of Cooperia remaining ([10]; 100 mg./kg.): 0
mean percentage efficacy against Cooperia ([10]; 100 mg./kg., *= only one lamb infected): 100%
number of Cooperia recovered at necropsy, individual lamb ([10]; 200 mg./kg.): 0
average number of Cooperia remaining ([10]; 200 mg./kg.): 0
total number of Cooperia remaining ([10]; 200 mg./kg.): 0
mean percentage efficacy against Cooperia ([10]; 200 mg./kg.): 100%
activity against the tapeworm Moniezia ([11]; 100 mg. and 200 mg. per kg): activity against the tapeworm Moniezia was observed
activity against tapeworm ([11]; 200 mg./kg.): positive
number of tapeworm recovered at necropsy, individual lamb ([11]; 200 mg./kg.): 0
average number of tapeworm remaining ([11]; 200 mg./kg., group average): 0
total number of tapeworm remaining ([11]; 200 mg./kg., group total): 0
number of Bunostomum recovered at necropsy, individual lamb [12]: 2 and 1
average number of Bunostomum remaining ([12]; group average): 1.5
total number of Bunostomum remaining ([12]; group total): 3
mean percentage efficacy against Bunostomum ([12]; vs unmedicated controls): 97%
activity against Haemonchus (egg counts and necropsy) [13]: established activity
activity against Strongyloides (egg counts and necropsy) ([14]; 300 mg./kg. oral): established activity
activity against Strongyloides ([14]; 400 mg./kg. oral): Activity
efficacy against Nematodirus (in words) ([15]; 100 mg. and 200 mg. per kg): efficacious
number of Nematodirus recovered at necropsy, individual lamb ([15]; 100 mg./kg.): 0
average number of Nematodirus remaining ([15]; 100 mg./kg.): 0
total number of Nematodirus remaining ([15]; 100 mg./kg.): 0
mean percentage efficacy against Nematodirus ([15]; 100 mg./kg.): 100%
number of Nematodirus recovered at necropsy, individual lamb ([15]; 200 mg./kg.): 0
average number of Nematodirus remaining ([15]; 200 mg./kg.): 0
total number of Nematodirus remaining ([15]; 200 mg./kg.): 0
mean percentage efficacy against Nematodirus ([15]; 200 mg./kg., *= only one lamb infected): 100%
efficacy against Ostertagia (in words) ([16]; 100 mg. and 200 mg. per kg): efficacious
number of Ostertagia recovered at necropsy, individual lamb ([16]; 100 mg./kg.): 0
average number of Ostertagia remaining ([16]; 100 mg./kg.): 0
total number of Ostertagia remaining ([16]; 100 mg./kg.): 0
mean percentage efficacy against Ostertagia ([16]; 100 mg./kg.): 100%
number of Ostertagia recovered at necropsy, individual lamb ([16]; 200 mg./kg.): 0
average number of Ostertagia remaining ([16]; 200 mg./kg.): 0
total number of Ostertagia remaining ([16]; 200 mg./kg.): 0
mean percentage efficacy against Ostertagia ([16]; 200 mg./kg.): 100%
efficacy against Strongyloides (in words) ([17]; 100 mg. and 200 mg. per kg): efficacious
number of Strongyloides recovered at necropsy, individual lamb ([17]; 100 mg./kg.): 2 and 0 and 11
average number of Strongyloides remaining ([17]; 100 mg./kg.): 3
total number of Strongyloides remaining ([17]; 100 mg./kg.): 13
mean percentage efficacy against Strongyloides ([17]; 100 mg./kg.): 97.9%
number of Strongyloides recovered at necropsy, individual lamb ([17]; 200 mg./kg.): 0
average number of Strongyloides remaining ([17]; 200 mg./kg.): 0
total number of Strongyloides remaining ([17]; 200 mg./kg.): 0
mean percentage efficacy against Strongyloides ([17]; 200 mg./kg.): 100%
activity against Nematodirus (egg counts and necropsy) ([18]; 300 mg./kg. oral): established activity
activity against Nematodirus ([18]; 400 mg./kg. oral): Activity
efficacy against Haemonchus (in words) ([19]; 100 mg. and 200 mg. per kg): efficacious
number of Haemonchus recovered at necropsy, individual lamb ([19]; 100 mg./kg.): 2 and 0
average number of Haemonchus remaining ([19]; 100 mg./kg.): < 1
total number of Haemonchus remaining ([19]; 100 mg./kg.): 2
mean percentage efficacy against Haemonchus ([19]; 100 mg./kg.): 99.9%
number of Haemonchus recovered at necropsy, individual lamb ([19]; 200 mg./kg.): 0 and 1
average number of Haemonchus remaining ([19]; 200 mg./kg.): < 1
total number of Haemonchus remaining ([19]; 200 mg./kg.): 1
mean percentage efficacy against Haemonchus ([19]; 200 mg./kg.): 99.9%
signs of toxicity to the lambs [20]: absence of signs of toxicity
activity against Trichostrongylus (egg counts and necropsy) ([21]; 300 mg./kg. oral): established activity
activity against Trichostrongylus ([21]; 400 mg./kg. oral): Activity

ClC(=NNc1c(Cl)cc(Cl)cc1Cl)c1ccc(Cl)cc1 [p-chlorobenzoyl chloride (2,4,6-trichlorophenyl)hydrazone]
anorexigenic activity [22]: anorexigenic activity

ClC(=NNc1cc(Cl)ccc1Cl)c1ccccc1 [benzoyl chloride (2,5-dichlorophenyl)hydrazone]
anorexigenic activity [22]: have anorexigenic activity

Reference: patent US4017540A, “Method of use, composition, and compounds” (The Upjohn Company, priority 1972, dated 1977)
